Measured values from patent US20140303198A1, “AGENT FOR INHIBITING EXPRESSION OF NPC1L1 AND/OR LIPG MRNA AND AGENT FOR PREVENTING AND/OR TREATING OBESITY” (KOWA COMPANY, LTD., priority 2011, published 2014).

Tests used:
LIPG mRNA = assay: DNA microarray gene expression profile in HepG2 cells (Test Example 2), LIPG; assay type: cell-based, human; details: 24 hours, treated vs untreated cells
Description: (§1) A compound of a test compound group was added to cells of a human hepatocellular carcinoma cell line HepG2, and the cells were then cultured for 24 hours. Thereafter, the gene expression profile was measured using the DNA microarray of Agilent. Specifically, the HepG2 cells were inoculated at a concentration of 2×10^5 cells/well into a 24-well plate, and were then cultured overnight. Thereafter, Compound 2 was dissolved in dimethyl sulfoxide (DMSO) to give concentrations of 1 μM and 10 μM, whereas Anacetrapib was dissolved in DMSO to give a concentration of […]. The thus prepared solution was added to the culture fluid in an amount of 1/1000-fold of the culture fluid. The cells were cultured at 37° C. for 24 hours in a CO2 incubator. Thereafter, 500 μL of ISOGEN (Nippon Gene Co., Ltd., Catalog No. 31-02501) was added to the culture, and total RNA was then extracted. Cy3-labeled cRNA was synthesized from 200 ng of the RNA using Low Input Quick Amp Labeling Kit (Agilent, Catalog No. 5190-2308). The synthesized Cy3-labeled cRNA was hybridized to Whole Human Genome (4×44K) (Agilent, Catalog No. G4110F), using GE Hybridization Buffer HI-RPM (Agilent, Catalog No. 5190-0403). After completion of the hybridization, the DNA microarray was washed with Gene Expression Wash Buffer (Agilent, Catalog No. 5188-5327), and data were then scanned with a scanner (Agilent).
(§2) The analysis was carried out using GeneSpring (Agilent), and the change rate of the expression level of each gene was calculated.
(§3) (Change rate)=(Expression level of each gene in cells treated with compound)[…](Expression level of each gene in cells untreated with compound)

NPC1L1 mRNA = assay: DNA microarray gene expression profile in HepG2 cells (Test Example 2), NPC1L1; assay type: cell-based, human; details: 24 hours, treated vs untreated cells
Description: as §1, §2, §3

SMILES	Change rate (fold) of LIPG expression level (LIPG mRNA; 10 μM)	Change rate (fold) of NPC1L1 expression level (NPC1L1 mRNA; 10 μM)	Change rate (fold) of LIPG expression level (LIPG mRNA; 1 μM)	Change rate (fold) of NPC1L1 expression level (NPC1L1 mRNA; 1 μM)
COc1cc(F)c(C(C)C)cc1-c1ccc(C(F)(F)F)cc1CN1C(=O)O[C@H](c2cc(C(F)(F)F)cc(C(F)(F)F)c2)[C@@H]1C [Anacetrapib, (4S,5R)-5-[3,5-bis(trifluoromethyl)phenyl]-3-((4′-fluoro-5′-isopropyl-2′-methoxy-4-(trifluoromethyl)-[1,1′-biphenyl]-2-yl)methyl)-4-methyloxazolidin-2-one, reference compound]	−1.9 fold	−1.5 fold		
CCN(C[C@H]1CC[C@H](CC(=O)O)CC1)c1ccc(C(F)(F)F)cc1CN(c1ncc(OCCS(C)(=O)=O)cn1)[C@@H](C)c1cc(C(F)(F)F)cc(C(F)(F)F)c1 [Compound 2, (S)-(−)-trans-{4-[({2-[({1-[3,5-bis(trifluoromethyl)phenyl]ethyl}{5-[2-(methylsulfonyl)ethoxy]pyrimidin-2-yl}amino)methyl]-4-(trifluoromethyl)phenyl}(ethyl)amino)methyl]cyclohexyl}ac etic acid]	−6.2 fold	−3.1 fold	−2.5 fold	−2.3 fold
